In the supplement of paper PMC10307832:

compound: CO[C@@H]1[C@H](N(C)C(=O)c2ccccc2)C[C@H]2O[C@]1(C)n1c3ccccc3c3c4c(c5c6ccccc6n2c5c31)C(=O)NC4 [Midostaurin] + COc1cc2c(Oc3ccc(NC(=O)C4(C(=O)Nc5ccc(F)cc5)CC4)cc3F)ccnc2cc1OCCCN1CCOCC1 [Foretinib] (partner 0.25 µM); assay: relative viability (nuclei count vs DMSO), 5 days (fraction); higher = more cells survive; conditions: first compound 0.01 µM
Method in brief: (§1)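 Each reported value is a median over duplicate plates. It expresses relative viability: treated-well nuclei count divided by vehicle-well nuclei count. Lung cancer cell lines in 1536-well plates were dosed by pin tool a day after seeding, alone with one drug or with a fixed anchor-drug dose plus five library-drug doses (not always all listed) in √10 steps, and nuclei were counted after 5 days.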

Cell Line | relative viability
COR-L 105 | 1.04
LOU-NH91 | 0.976
NCI-H2170 | 1.05
NCI-H2405 | 1.05
HOP-62 | 1.14
LU99A | 0.708
BEN | 0.719
HARA | 0.904
HCC-78 | 0.65
NCI-H322M | 1.04
LCLC-97TM1 | 1
NCI-H2009 | 1.22
A-427 | 1.06
NCI-H441 | 0.808
NCI-H1734 | 0.878
NCI-H460 | 1.02
NCI-H2347 | 1.2
SK-LU-1 | 0.799
NCI-H1395 | 1.12
201T | 1.15
NCI-H1915 | 1.1
HCC-827 | 0.98
LXF-289 | 0.967
NCI-H23 | 0.685
NCI-H647 | 1.14
CAL-12T | 1.17
NCI-H1651 | 0.882
EPLC-272H | 0.822
NCI-H2228 | 0.922
NCI-H1355 | 1.02

same assay, conditions: first compound 0.03162 µM

Cell Line | relative viability
COR-L 105 | 1.04
LOU-NH91 | 0.903
NCI-H2170 | 0.951
NCI-H2405 | 0.985
HOP-62 | 1.04
LU99A | 0.854
BEN | 0.803
HARA | 0.887
HCC-78 | 0.532
NCI-H322M | 0.923
LCLC-97TM1 | 0.937
NCI-H2009 | 1.09
A-427 | 1.08
NCI-H441 | 0.848
NCI-H1734 | 0.739
NCI-H460 | 0.932
NCI-H2347 | 1.13
SK-LU-1 | 0.869
NCI-H1395 | 1.07
201T | 0.988
NCI-H1915 | 0.993
HCC-827 | 1.04
LXF-289 | 0.941
NCI-H23 | 1.23
NCI-H647 | 1.2
CAL-12T | 0.959
NCI-H1651 | 0.819
NCI-H2228 | 0.85
NCI-H1355 | 0.913

same assay, conditions: first compound 0.1 µM

Cell Line | relative viability
COR-L 105 | 0.909
LOU-NH91 | 1.01
NCI-H2170 | 0.477
NCI-H2405 | 1.01
HOP-62 | 1.16
LU99A | 0.695
BEN | 0.966
HARA | 0.91
HCC-78 | 0.541
NCI-H322M | 1.07
LCLC-97TM1 | 0.817
NCI-H2009 | 0.88
A-427 | 0.903
NCI-H441 | 0.858
NCI-H1734 | 0.866
NCI-H460 | 1
NCI-H2347 | 0.841
SK-LU-1 | 0.747
NCI-H1395 | 0.992
201T | 1.14
NCI-H1915 | 1.04
HCC-827 | 1.01
LXF-289 | 0.897
NCI-H23 | 0.648
NCI-H647 | 1.2
CAL-12T | 0.733
NCI-H1651 | 0.764
EPLC-272H | 0.653
NCI-H2228 | 1.08
NCI-H1355 | 0.817

same assay, conditions: first compound 0.3162 µM

Cell Line | relative viability
COR-L 105 | 1.09
LOU-NH91 | 1.01
NCI-H2170 | 0.735
NCI-H2405 | 0.96
HOP-62 | 1.2
LU99A | 0.783
BEN | 0.667
HARA | 0.891
HCC-78 | 0.555
NCI-H322M | 1.14
LCLC-97TM1 | 0.913
NCI-H2009 | 1.16
A-427 | 1.03
NCI-H441 | 0.693
NCI-H1734 | 0.679
NCI-H460 | 0.95
NCI-H2347 | 1.5
SK-LU-1 | 0.621
NCI-H1395 | 1.1
201T | 1.17
NCI-H1915 | 1.09
HCC-827 | 1.05
LXF-289 | 0.988
NCI-H23 | 0.531
NCI-H647 | 1.14
CAL-12T | 1.11
NCI-H1651 | 0.683
EPLC-272H | 0.606
NCI-H2228 | 0.905
NCI-H1355 | 0.971

compound: COc1cc(-c2nn([C@H]3CC[C@H](N4CCN(C(C)=O)CC4)CC3)c3ncnc(N)c23)ccc1NC(=O)c1cc2ccccc2n1C + Cc1nc(NC(=O)N2CCC[C@H]2C(N)=O)sc1-c1ccnc(C(C)(C)C(F)(F)F)c1 [Alpelisib] (partner 2 µM); assay: as above; conditions: first compound 0.0128 µM
Method in brief: as §1

Cell Line | relative viability
COR-L 105 | 1.13
LOU-NH91 | 0.77
NCI-H2170 | 0.891
NCI-H2405 | 0.83
HOP-62 | 1.04
LU99A | 0.464
BEN | 0.972
HARA | 0.855
HCC-78 | 0.376
NCI-H322M | 0.801
LCLC-97TM1 | 0.252
NCI-H2009 | 1.15
A-427 | 1.15
NCI-H441 | 0.762
NCI-H1734 | 0.684
NCI-H460 | 0.386
NCI-H2347 | 1.05
SK-LU-1 | 1.15
NCI-H1395 | 0.947
201T | 0.996
NCI-H1915 | 1.13
HCC-827 | 1.11
LXF-289 | 1.1
NCI-H23 | 0.63
NCI-H647 | 1.03
CAL-12T | 1.32
NCI-H1651 | 0.965
EPLC-272H | 0.976
NCI-H2228 | 0.774
NCI-H1355 | 0.981

same assay, conditions: first compound 0.04048 µM

Cell Line | relative viability
COR-L 105 | 1.09
LOU-NH91 | 0.74
NCI-H2170 | 0.789
NCI-H2405 | 0.419
HOP-62 | 0.907
LU99A | 0.565
BEN | 1.15
HARA | 0.886
HCC-78 | 0.361
NCI-H322M | 0.844
LCLC-97TM1 | 0.203
NCI-H2009 | 1.2
A-427 | 0.959
NCI-H441 | 0.985
NCI-H1734 | 0.636
NCI-H460 | 0.59
NCI-H2347 | 0.948
SK-LU-1 | 0.917
NCI-H1395 | 1.47
201T | 1.09
NCI-H1915 | 1.07
HCC-827 | 0.961
LXF-289 | 1.03
NCI-H23 | 0.632
NCI-H647 | 1.18
CAL-12T | 1.25
NCI-H1651 | 0.941
EPLC-272H | 1.09
NCI-H2228 | 0.793
NCI-H1355 | 0.795

same assay, conditions: first compound 0.128 µM

Cell Line | relative viability
COR-L 105 | 1.08
LOU-NH91 | 0.759
NCI-H2170 | 0.82
NCI-H2405 | 0.722
HOP-62 | 0.952
LU99A | 0.534
BEN | 0.865
HARA | 0.735
HCC-78 | 0.322
NCI-H322M | 0.681
LCLC-97TM1 | 0.226
NCI-H2009 | 1.16
A-427 | 1.01
NCI-H441 | 0.556
NCI-H1734 | 0.716
NCI-H460 | 0.57
NCI-H2347 | 0.924
SK-LU-1 | 0.821
NCI-H1395 | 0.995
201T | 0.908
NCI-H1915 | 1.02
HCC-827 | 0.942
LXF-289 | 1.04
NCI-H23 | 0.659
NCI-H647 | 0.945
CAL-12T | 1.34
NCI-H1651 | 0.911
EPLC-272H | 0.923
NCI-H2228 | 0.692
NCI-H1355 | 0.828

same assay, conditions: first compound 1.28 µM

Cell Line | relative viability
COR-L 105 | 0.531
LOU-NH91 | 0.564
NCI-H2170 | 0.686
NCI-H2405 | 0.272
HOP-62 | 0.774
LU99A | 0.521
BEN | 0.642
HARA | 0.447
HCC-78 | 0.281
NCI-H322M | 0.741
LCLC-97TM1 | 0.319
NCI-H2009 | 1.08
A-427 | 0.908
NCI-H441 | 0.576
NCI-H1734 | 0.573
NCI-H460 | 0.378
NCI-H2347 | 1.03
SK-LU-1 | 0.441
NCI-H1395 | 0.953
201T | 0.591
NCI-H1915 | 0.857
HCC-827 | 0.726
LXF-289 | 0.958
NCI-H23 | 0.476
NCI-H647 | 0.429
CAL-12T | 0.998
NCI-H1651 | 0.862
EPLC-272H | 0.765
NCI-H2228 | 0.45
NCI-H1355 | 0.737

compound: CO[C@@H]1[C@H](N(C)C(=O)c2ccccc2)C[C@H]2O[C@]1(C)n1c3ccccc3c3c4c(c5c6ccccc6n2c5c31)C(=O)NC4 [Midostaurin] + CC1(C)CCC(c2ccc(Cl)cc2)=C(CN2CCN(c3ccc(C(=O)NS(=O)(=O)c4ccc(N[C@H](CCN5CCOCC5)CSc5ccccc5)c(S(=O)(=O)C(F)(F)F)c4)cc3)CC2)C1 [Navitoclax] (partner 0.5 µM); assay: as above; conditions: first compound 0.01 µM
Method in brief: as §1

Cell Line | relative viability
COR-L 105 | 0.733
LOU-NH91 | 0.753
NCI-H2170 | 0.609
NCI-H2405 | 0.921
HOP-62 | 0.928
LU99A | 0.819
BEN | 0.0719
HARA | 1.13
HCC-78 | 0.835
NCI-H322M | 1.18
LCLC-97TM1 | 0.467
NCI-H2009 | 1.16
A-427 | 0.977
NCI-H441 | 0.402
NCI-H1734 | 0.829
NCI-H460 | 1.08
NCI-H2347 | 0.771
SK-LU-1 | 0.703
NCI-H1395 | 1.11
201T | 1.19
NCI-H1915 | 0.8
HCC-827 | 1.03
LXF-289 | 0.954
NCI-H23 | 0.875
NCI-H647 | 1.16
CAL-12T | 1.44
NCI-H1651 | 1.01
EPLC-272H | 1.11
NCI-H2228 | 0.665
NCI-H1355 | 0.966

same assay, conditions: first compound 0.03162 µM

Cell Line | relative viability
COR-L 105 | 0.941
LOU-NH91 | 0.702
NCI-H2170 | 0.673
NCI-H2405 | 1.04
HOP-62 | 0.981
LU99A | 0.788
BEN | 0.0568
HARA | 1.12
HCC-78 | 0.638
NCI-H322M | 1.19
NCI-H2009 | 1.14
A-427 | 0.859
NCI-H441 | 0.832
NCI-H1734 | 0.813
NCI-H460 | 0.994
NCI-H2347 | 0.832
SK-LU-1 | 0.704
NCI-H1395 | 1.09
201T | 1.2
NCI-H1915 | 0.827
HCC-827 | 0.987
LXF-289 | 0.92
NCI-H23 | 0.95
NCI-H647 | 0.997
CAL-12T | 0.981
NCI-H1651 | 1.07
EPLC-272H | 0.96
NCI-H2228 | 0.824
NCI-H1355 | 0.924
